The numbers were not newly measured in US20190314394A1, “IMMUNE-POTENTIATING DRUG NANOCARRIERS AND METHODS OF PRODUCTION AND USE THEREOF” (priority 2013, published 2019), which cites them from elsewhere.

The test system of the series is HLA-DR molecules. The note with it: 15 out of 16 of the most prevalent HLA-DR molecules; read-out: IC50 (high or intermediate affinity binding).

For the substance “aKXVAAWTLKAAa (SEQ ID NO: 5) (AKAVAAWTLKAAA; D-alanine termini, cyclohexylalanine; MOD_RES (1)..(1) D-Alanine; MOD_RES (3)..(3) Cyclohexylalanine; MOD_RES (13)..(13) D-Alanine) [PADRE peptide variant; a=D-alanine, X=cyclohexylalanine]”, the IC50 is < 1 µM.
